Where two headings read alike, the source gives them in different places.
Tests used:
[1] = system: ES cells stably transfected with the α-MHC-SEAP vector (D3 mouse embryonic stem cells), differentiation into cardiac cells; conditions: EB culture supernatants after 13 days
Procedure: After 13 days culture supernatants were assayed for SEAP activity. Shown are mean values of duplicate samples from which background SEAP activity was substracted. Activities are expressed as percentage of SEAP activity in samples containing only solvent (DMSO) but no retinoic acid.
All incubations of cell cultures were performed at 37° C. in a humidified atmosphere containing 5% CO2.
Cells were collected by centrifugation (800 g for 5 min) and resuspended in Iscove's Modified Dulbecco's Medium (IMDM, Invitrogen) supplemented with 20% (v/v) fetal bovine serum (FBS, Invitrogen) at a density of 2×10^6 cells/ml. To aggregate ES cells, 4 ml of this suspension were incubated on a 6 cm bacteriological dish (Greiner) on a rocking platform (GFL 3006) with agitation (50 rpm). After 6 hours, 2 ml of that culture were added to 13 ml IMDM containing 20% FBS in a T25 flask (Falcon). The flask was incubated with rocking (50 rpm; GFL 3006) for 18 hours. During this procedure ES cell aggregates (embryoid bodies; EBs) were formed.
In 10 cm petri dishes (bacteriological grade, Greiner) medium was prepared consisting of IMDM supplemented with 20% FBS and retinoic acid added from above stocks to yield final concentrations of 10^−7 M, 10^−8 M, 10^−9 M, 10^−10 M, 10^−11 M, and 10^−12 M retinoic acid, respectively. One dish received DMSO (final concentration 0.1% (v/v)) without retinoic acid (solvent control). Each dish contained 10 ml of medium. 70 EBs were transferred into each petri dish and incubated for 4 days.
Subsequently, EBs were transferred to 6-well plates (tissue culture grade; Becton-Dickinson). Each well contained 3 ml IMDM with 20% FBS and retinoic acid and DMSO as described above for the culture in 10 cm dishes. […]
Samples were assayed for SEAP activity using the Great EscAPe SEAP Fluorescence Detection Kit (Becton-Dickinson) following the manufacturer's instructions. Fluorescence was measured using a microplate reader (Safire, Tecan). Background activity was determined by assaying a sample of fresh medium (Knockout™ D-MEM supplemented with 20% (v/v) Knockout™ SR).

ES cells = conditions: in vitro; literature (Seiler et al., ALTEX 2002); cited from earlier work

Structure (SMILES): CC1=C(/C=C/C(C)=C/C=C/C(C)=C/C(=O)O)C(C)(C)CCC1 [retinoic acid, all-trans retinoic acid]
- SEAP activity ([1]; 10^−8 M retinoic acid, solvent (DMSO) control): decreased sharply
- SEAP activity ([1]; retinoic acid at concentrations higher than 10^−8 M (10^−7 M)): no activity was observed
- SEAP activity as compared to controls ([1]; retinoic acid below 10^−9 M, solvent (DMSO) control): no influence
- generation of cardiomyocytes from ES cells (ES cells): inhibit the generation of cardiomyocytes
